Measured values published in ChEMBL document CHEMBL1156829 (Proc Natl Acad Sci U S A, 2008).

Legend:
[1] = tested on: Plasmodium falciparum; test: NOVARTIS: Inhibition of Plasmodium falciparum 3D7 (drug-susceptible) proliferation in erythrocyte-based infection assay; format: functional, organism-based; details: Plasmodium falciparum, 3D7
[2] = tested on: Plasmodium falciparum; test: NOVARTIS: Inhibition of Plasmodium falciparum W2 (drug-resistant) proliferation in erythrocyte-based infection assay; format: functional, organism-based; details: Plasmodium falciparum, W2; read-out: EC50
[3] = NOVARTIS: Cytotoxicity against human hepatocellular carcinoma cell line (Huh7); format: toxicity, cell-based, Huh-7; details: Huh7 cells (hepatocellular carcinoma cell line)

Row | Structure (SMILES) | EC50 [1] [µM] | EC50 [2] [µM] | CC50 [3] [µM]
1 | CCOc1ccc(C(=O)Cn2ccc(=NCc3ccccc3)cc2)cc1[N+](=O)[O-] | 0.0697 | 0.121 | 20.1
2 | COc1cccc(C(Nc2cc(C)ccn2)c2ccc3cccnc3c2O)c1 (configuration not stated) | 1.11 | 0.562 | > 93.5
3 | COc1ccc(CC2NCC(O)C2OC(C)=O)cc1 (configuration not stated) | 0.0369 | 0.0485 | 8.11
4 | CCOc1ccc(N2C(=O)C3C4CC(C(Br)C4Br)C3C2=O)cc1 (configuration not stated) | > 12.5 | 0.441 | > 72.5
5 | CCc1ccc(NC(=O)C2c3ccccc3C(=O)N(CC(C)C)C2c2cccs2)cc1 (configuration not stated) | 2.3 | 0.607 | > 100
6 | CC(=O)N(C1=C(N(C)C)C(=O)c2ccccc2C1=O)c1cccc(O)c1 | 0.0467 | 0.0582 | > 10
7 | CCOc1ccc(C2C(C(=O)OC)=CNC=C2C(=O)OC)cc1Cl | 0.304 | 0.581 | > 100
8 | CCOC(=O)C1CCN(C(=O)C(=O)Nc2ccc3nc4n(c(=O)c3c2)CCCCC4)CC1 | 0.998 | 0.58 | > 100
9 | C=CC1CN2CCC1CC2[C@@H](OC(=O)c1ccc(OC)cc1)c1ccnc2ccccc12 (some centres not stated) | 0.309 | 0.509 | 87.1
10 | CCNc1nc(OC)nc(Oc2ccc(=O)n(-c3ccccc3)n2)n1 | 0.548 | 0.584 | > 100
11 | COc1cc(NC(=O)C=Cc2ccccc2Cl)cc(OC)c1OC | 0.547 | 0.302 | 47.8
12 | Cc1ccc(C)c(NC(=O)c2c(-c3c(Cl)cccc3Cl)noc2C)c1 | 0.218 | 0.443 | > 70.7
13 | COC(=O)C1C(=O)C2=C(CC1C)NC(=O)CC2c1cccc(Cl)c1Cl (configuration not stated) | 0.814 | 0.617 | > 100
14 | CC(C)N1CC=C(c2c[nH]c3ccccc23)CC1 | 0.206 | 0.637 | > 100
15 | O=C1C2C(C(=O)N1c1ccc(Cl)c(C(F)(F)F)c1)C1(c3ccccc3)C(=O)C2(c2ccccc2)C(c2ccccc2)=C1c1ccccc1 (configuration not stated) | 0.442 | 0.616 | > 100
16 | COc1ccc(C2=C(c3ccc(OC)cc3)C3(c4ccccc4)C(=O)C2(c2ccccc2)C2C(=O)N(c4ccccc4[N+](=O)[O-])C(=O)C23)cc1 (configuration not stated) | 1.19 | 0.58 | > 100
17 | CC[C@H]1CN2CC[C@@H]1C[C@@H]2[C@@H](O)c1ccnc2ccc(OC)cc12 | 0.0318 | 0.0579 | > 10

Row | Structure (SMILES) | EC50 [1] [µM] | EC50 [2] [µM] | CC50 [3] [µM]
18 | Cc1cc(C)n(CC(O)Cn2c3ccc(Br)cc3c3cc(Br)ccc32)n1 (configuration not stated) | 1.04 | 0.284 | 45.4
19 | COC(=O)[C@@H]1C[C@@H](NC(=O)c2ccc(OC)cc2)CN1CC(c1ccccc1)c1ccccc1 | 1.15 | < 0.0257 | > 4.17
20 | COC(=O)C1=CN(Cc2ccc(OC)cc2)C=C(C(=O)OC)C1c1cccs1 | 5.64 | 0.602 | > 100
21 | CCOC(=O)c1cnc2c(C)cc(C)cc2c1Nc1ccc(OC)c(OC)c1 | 1.78 | 0.583 | > 100
22 | COc1ccc(Br)cc1CNC(=O)CCCN1C(=O)COc2ccc(C)cc21 | 1.88 | 0.628 | > 100
23 | Cc1ccc(C)c(Nc2nc(NCc3ccccc3)c3ccccc3n2)c1 | 0.246 | 0.0902 | 14.5
24 | CCOc1ccc(N(C(=O)C2COc3ccccc3O2)C(C(=O)NC2CCCCC2)c2cn(C)nc2C)cc1 (configuration not stated) | 0.443 | 0.614 | > 100
25 | N#Cc1c(N)nc(SCC(=O)c2ccc(Cl)cc2)c(C#N)c1-c1ccco1 | 2.28 | 0.595 | > 100
26 | Cc1c2c(n3c(nc4ccccc43)c1C#N)N(CCN(C)C)CC2 | 0.419 | 0.638 | > 100
27 | O=C1CC(c2ccccc2)CC2=C1C(c1cccc(Cl)c1Cl)Nc1ccccc1N2 (configuration not stated) | 0.288 | 0.464 | > 78.8
28 | Cc1cc2cc(C3C(C#N)=C(N)Oc4c3ccc3ccccc43)c(Cl)nc2cc1Cl (configuration not stated) | 0.24 | 0.629 | > 100
29 | OC1=C2C(=Nc3ccccc3SC2c2ccco2)c2ccccc21 (configuration not stated) | 0.251 | 0.35 | 55.3
30 | CN(C)c1ccc(-c2n(C)c3ccccc3[n+]2C)cc1 | 1.12 | 0.636 | > 100
31 | Clc1ccc(Nc2nc(NCc3ccco3)c3ccccc3n2)cc1 | 0.113 | 0.0924 | 15.6
32 | CCCCc1c(CCC)c(=N)c2ccccc2n1C | 0.311 | 0.422 | 71.9
33 | Cc1nc2c(C)cccc2c(O)c1CC=C(Cl)Cl | 1.11 | 0.609 | > 100
34 | CCOC(=O)c1cnc2c(C)cccc2c1Nc1cccc(C(C)=O)c1 | 1.02 | 0.607 | > 100
